Type in all cases: cell-based
Test [1] concerns the target T1, AHR (Homo sapiens, UniProt P35869).
T1 sequence (P35869 11-848): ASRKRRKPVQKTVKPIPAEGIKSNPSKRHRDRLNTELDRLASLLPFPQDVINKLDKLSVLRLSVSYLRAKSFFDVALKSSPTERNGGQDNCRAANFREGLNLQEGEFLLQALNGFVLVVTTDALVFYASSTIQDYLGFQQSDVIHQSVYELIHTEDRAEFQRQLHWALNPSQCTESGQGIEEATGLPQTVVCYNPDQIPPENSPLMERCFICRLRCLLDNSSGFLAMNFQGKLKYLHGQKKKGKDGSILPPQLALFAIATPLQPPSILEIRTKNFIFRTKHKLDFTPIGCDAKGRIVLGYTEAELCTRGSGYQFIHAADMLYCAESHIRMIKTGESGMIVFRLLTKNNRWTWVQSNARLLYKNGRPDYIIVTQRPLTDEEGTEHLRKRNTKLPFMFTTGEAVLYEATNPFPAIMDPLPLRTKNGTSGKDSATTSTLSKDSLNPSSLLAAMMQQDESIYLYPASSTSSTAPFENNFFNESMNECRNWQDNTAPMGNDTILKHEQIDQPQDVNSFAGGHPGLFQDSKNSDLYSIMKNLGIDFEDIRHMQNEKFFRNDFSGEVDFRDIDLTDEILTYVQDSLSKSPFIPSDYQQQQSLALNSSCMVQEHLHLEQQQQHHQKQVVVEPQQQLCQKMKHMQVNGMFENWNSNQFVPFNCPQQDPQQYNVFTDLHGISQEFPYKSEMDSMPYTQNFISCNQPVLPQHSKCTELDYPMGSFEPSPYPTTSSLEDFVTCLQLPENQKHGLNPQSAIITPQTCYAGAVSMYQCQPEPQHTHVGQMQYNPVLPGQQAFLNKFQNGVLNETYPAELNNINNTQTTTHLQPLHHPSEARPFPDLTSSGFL
The test is described as follows: In vitro assay 3: AHR-regulated CYP1A1 expression in human cell line (U937, qPCR, KA stimulation). To be noted: U937 cells, 200 uM KA, 6 hours, CYP1A1 expression by qPCR; read-out: Assay 3: Hum CYP1A1 Antagonism IC50. The procedure, abridged:
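U937 human monocytic cells were stimulated with 200 uM KA for 6 h, with or without compound at eight concentrations from 1 nM to 3 uM, in duplicate. CYP1A1 mRNA was quantified by Taqman qPCR as fold expression normalised to HPRT. Unstimulated cells served as negative control.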

Test [2] has as its target T1, AHR. Put plainly: In vitro assay 1: antagonism in human cell line (transactivation assay, U87 cells prestimulated with kynurenic acid, DRE firefly luciferase reporter). On the set-up: host or cells: U87 glioblastoma cells, stably transfected with DRE firefly luciferase and renilla reporter constructs. The following applies: 150 uM kynurenic acid, 20 hours, read-out: Assay 1: AHR-luc Hum Antagonism IC50. The procedure, abridged: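 U87 glioblastoma cells with endogenous AHR, stably carrying a DRE-driven firefly luciferase reporter and a constitutive renilla reporter. Cells prestimulated with the AHR agonist kynurenic acid before compound addition; data normalized to positive and negative controls.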

Test [3] deals with T1, AHR. The test is described as follows: In vitro assay 2: agonism in human cell line (transactivation assay, U87 cells, DRE firefly luciferase reporter). On the set-up: host or cells: U87 glioblastoma cells, stably transfected with DRE firefly luciferase and renilla reporter constructs. To be noted: no kynurenic acid, 20 hours, read-out: Assay 2: AHR-luc Hum Agonism IC50. The essentials:
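U87 glioblastoma cells with endogenous AHR, stably carrying DRE-driven firefly luciferase and constitutive renilla reporters. 300 uM kynurenic acid served as positive activation control; data normalized to positive and negative controls.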

The structures appear in SMILES notation.

On to `O=C(N[C@H]1COC[C@@H]1O)c1cc(-c2ccc(OC(F)(F)F)cc2)nn(-c2cccnc2)c1=O` (single isomer, unassigned; enantiomer 2) [Example 162, N-[(trans)-4-Hydroxytetrahydrofuran-3-yl]-3-oxo-2-(pyridin-3-yl)-6-[4-(trifluoromethoxy)phenyl]-2,3-dihydropyridazine-4-carboxamide, Enantiomer 2], for which the IC50 in test [1] was 37.3 nM; in test [2], 27.3 nM; in test [3] it was over 20000 nM.

On to `O=C(N[C@@H]1CCC[C@@H]1O)c1cc(-c2ccc(C(F)(F)F)cc2)nn(-c2cccnc2)c1=O` [Example 103, N-[(1R,2S)-2-Hydroxycyclopentyl]-3-oxo-2-(pyridin-3-yl)-6-[4-(trifluoromethyl)phenyl]-2,3-dihydropyridazine-4-carboxamide], for which the IC50 in test [1] is 24.5 nM; in test [2], 13.3 nM; in test [3], over 20000 nM.

For the compound `Cn1cc(-n2nc(-c3ccc(Cl)cc3)cc(C(=O)N[C@@H]3COC[C@@H]3O)c2=O)cn1` (single isomer, unassigned; enantiomer 2) [Example 45, 6-(4-Chlorophenyl)-N-[(cis)-4-hydroxytetrahydrofuran-3-yl]-2-(1-methyl-1H-pyrazol-4-yl)-3-oxo-2,3-dihydropyridazine-4-carboxamide, Enantiomer 2], the IC50 is 83.5 nM in test [1], 41.5 nM in test [2] and over 20000 nM in test [3].

As to `Cn1cc(-n2nc(-c3ccc(OC(F)(F)F)cc3)cc(C(=O)N[C@H]3CCCC[C@H]3O)c2=O)cn1` [Example 46, N-[(1S,2R)-2-Hydroxycyclohexyl]-2-(1-methyl-1H-pyrazol-4-yl)-3-oxo-6-[4-(trifluoromethoxy)phenyl]-2,3-dihydropyridazine-4-carboxamide], the values for the IC50 in test [1], in test [2] and in test [3] were 1.36 nM, 1.48 nM and over 20000 nM, respectively.

Consider `O=C(N[C@H]1CCCC[C@H]1O)c1cc(-c2ccc(OC(F)(F)F)cc2)nn(-c2cccnc2)c1=O` [Example 126, N-[(1S,2R)-2-Hydroxycyclohexyl]-3-oxo-2-(pyridin-3-yl)-6-[4-(trifluoromethoxy)phenyl]-2,3-dihydropyridazine-4-carboxamide], for which the IC50 in test [1] is 5.15 nM; in test [2], 4.6 nM; in test [3], over 20000 nM.

For `C[C@@H](CO)NC(=O)c1cc(-c2ccc(OC(F)(F)F)cc2)nn(-c2cccnc2)c1=O` [Example 153, N-[(2S)-1-Hydroxypropan-2-yl]-3-oxo-2-(pyridin-3-yl)-6-[4-(trifluoromethoxy)phenyl]-2,3-dihydropyridazine-4-carboxamide], the IC50 in test [1] was 21.7 nM; in test [2] it was 24.2 nM; in test [3] it was over 20000 nM.

Regarding `O=C(NC[C@H](O)C(F)(F)F)c1cc(-c2ccc(Cl)cc2)nn(-c2csc(Cl)c2)c1=O` [Example 232, 6-(4-Chlorophenyl)-2-(5-chloro-3-thienyl)-3-oxo-N-[(2S)-3,3,3-trifluoro-2-hydroxypropyl]-2,3-dihydropyridazine-4-carboxamide], the IC50 was 7.38 nM in test [1], 8.16 nM in test [2] and over 20000 nM in test [3].

For `O=C(N[C@H]1COCC[C@H]1O)c1cc(-c2ccc(OC(F)(F)F)cc2)nn(-c2cccnc2)c1=O` [Example 176, 1,5-Anhydro-2,4-dideoxy-2-[({3-oxo-2-(pyridin-3-yl)-6-[4-(trifluoromethoxy)phenyl]-2,3-dihydropyridazin-4-yl}carbonyl)amino]-D-erythro-pentitol], the IC50 in test [1] was 38.8 nM; in test [2] it was 66.1 nM; in test [3], over 20000 nM.

As for `Cn1cc(-n2nc(-c3ccc(Cl)cc3)cc(C(=O)NCC(O)C(F)(F)F)c2=O)cn1` (single isomer, unassigned; (+)) [Example 20, (+)-6-(4-Chlorophenyl)-2-(1-methyl-1H-pyrazol-4-yl)-3-oxo-N-(3,3,3-trifluoro-2-hydroxypropyl)-2,3-dihydropyridazine-4-carboxamide], the IC50 in test [1] was 63.1 nM; in test [2], 26.7 nM; in test [3], over 20000 nM.

On to `C[C@@H](CO)NC(=O)c1cc(-c2ccc(OC(F)F)cc2)nn(-c2cnn(C)c2)c1=O` [Example 308, 6-[4-(Difluoromethoxy)phenyl]-N-[(2S)-1-hydroxypropan-2-yl]-2-(1-methyl-1H-pyrazol-4-yl)-3-oxo-2,3-dihydropyridazine-4-carboxamide], for which the results for the IC50 in test [1], in test [2] and in test [3] were 33.7 nM, 21.9 nM and over 20000 nM, respectively.

`O=C(N[C@H](CO)C(F)(F)F)c1cc(-c2ccc(OC(F)(F)F)cc2)nn(-c2cccnc2)c1=O` [Example 134, 3-Oxo-2-(pyridin-3-yl)-N-[(2R)-1,1,1-trifluoro-3-hydroxypropan-2-yl]-6-[4-(trifluoromethoxy)phenyl]-2,3-dihydropyridazine-4-carboxamide]: the IC50 in test [1] was 9.89 nM; in test [2] it was 7.68 nM; in test [3], over 20000 nM.

Take `O=C(N[C@@H]1COC[C@@H]1O)c1cc(-c2ccc(C(F)(F)F)cc2)nn(-c2cccnc2)c1=O` (single isomer, unassigned) [Example 229, (+)-N-cis-4-Hydroxytetra-hydrofuran-3-yl-3-oxo-2-(pyridin-3-yl)-6-[4-(trifluoromethyl)phenyl]-2,3-dihydropyridazine-4-carboxamide]: the IC50 in test [1] was 12.2 nM; in test [2] it was 7.09 nM; in test [3], over 20000 nM.

Take `CC(C)(O)CNC(=O)c1cc(-c2ccc(C(F)F)cc2)nn(-c2cccnc2)c1=O` [Example 322, 6-[4-(Difluoromethyl)phenyl]-N-(2-hydroxy-2-methylpropyl)-3-oxo-2-(pyridin-3-yl)-2,3-dihydropyridazine-4-carboxamide]: the IC50 in test [1] was 31.1 nM; in test [2], 56.7 nM; in test [3], over 20000 nM.

In the case of `C[C@H](NC(=O)c1cc(-c2ccc(C(F)(F)F)cc2)nn(-c2cn[nH]c2)c1=O)C(C)(C)O` [Example 260, N-[(2S)-3-Hydroxy-3-methylbutan-2-yl]-3-oxo-2-(1H-pyrazol-4-yl)-6-[4-(trifluoromethyl)phenyl]-2,3-dihydropyridazine-4-carboxamide], the IC50 in test [1] is 14.4 nM; in test [2], 29.4 nM; in test [3], over 20000 nM.

Turning to `O=C(N[C@H]1CCC[C@H]1O)c1cc(-c2ccc(C(F)(F)F)cc2)nn(-c2cccnc2)c1=O` [Example 105, N-[(1S,2R)-2-Hydroxycyclopentyl]-3-oxo-2-(pyridin-3-yl)-6-[4-(trifluoromethyl)phenyl]-2,3-dihydropyridazine-4-carboxamide], the IC50 in test [1] is 1.86 nM; in test [2] it was 2.37 nM; in test [3], over 20000 nM.

As for `O=C(NC(CO)C(F)(F)F)c1cc(-c2ccc(OC(F)(F)F)cc2)nn(-c2cccnc2)c1=O` (stereo not drawn) [Example 149, 3-Oxo-2-(pyridin-3-yl)-N-(1,1,1-trifluoro-3-hydroxypropan-2-yl)-6-[4-(trifluoromethoxy)phenyl]-2,3-dihydropyridazine-4-carboxamide], the IC50 in test [1] was 11.2 nM; in test [2] it was 18.8 nM; in test [3], over 20000 nM.

In the case of `O=C(N[C@H]1CCC[C@@H]1O)c1cc(-c2ccc(C(F)(F)F)cc2)nn(-c2cccnc2)c1=O` [Example 102, N-[(1S,2S)-2-Hydroxycyclopentyl]-3-oxo-2-(pyridin-3-yl)-6-[4-(trifluoromethyl)phenyl]-2,3-dihydropyridazine-4-carboxamide], the IC50 was 1.69 nM in test [1], 1.88 nM in test [2] and over 20000 nM in test [3].

Turning to `O=C(N[C@H]1COCC[C@H]1O)c1cc(-c2ccc(Cl)cc2)nn(-c2cccnc2)c1=O` [Example 175, 1,5-Anhydro-2-({[6-(4-chlorophenyl)-3-oxo-2-(pyridin-3-yl)-2,3-dihydropyridazin-4-yl]carbonyl}amino)-2,4-dideoxy-D-erythro-pentitol], the IC50 in test [1] is 112 nM; in test [2], 66.1 nM; in test [3], over 20000 nM.
